Data: article PMC5927461, “Activation of host transient receptor potential (TRP) channels by praziquantel stereoisomers” (PLoS Neglected Tropical Diseases, 2018)
“Also recorded” adds a separate entry of the source. Read-outs that look alike come from different tables or passages of the source.

Experiments:
[1] = test system: mouse mesenteric arteries; experiment: Wire myography, mesenteric artery strips precontracted with high K+ (KPSS)
hTRPM8 [2] = biological target: T1, hTRPM8 (Homo sapiens, UniProt Q7Z2W7); set-up: host or cells: HEK293 (ATCC CRL-1573.3), transient; method as in PMID 29054683; conditions: by microfluorimetry; partial agonist; cited from earlier work
T1 sequence (Q7Z2W7 whole entry): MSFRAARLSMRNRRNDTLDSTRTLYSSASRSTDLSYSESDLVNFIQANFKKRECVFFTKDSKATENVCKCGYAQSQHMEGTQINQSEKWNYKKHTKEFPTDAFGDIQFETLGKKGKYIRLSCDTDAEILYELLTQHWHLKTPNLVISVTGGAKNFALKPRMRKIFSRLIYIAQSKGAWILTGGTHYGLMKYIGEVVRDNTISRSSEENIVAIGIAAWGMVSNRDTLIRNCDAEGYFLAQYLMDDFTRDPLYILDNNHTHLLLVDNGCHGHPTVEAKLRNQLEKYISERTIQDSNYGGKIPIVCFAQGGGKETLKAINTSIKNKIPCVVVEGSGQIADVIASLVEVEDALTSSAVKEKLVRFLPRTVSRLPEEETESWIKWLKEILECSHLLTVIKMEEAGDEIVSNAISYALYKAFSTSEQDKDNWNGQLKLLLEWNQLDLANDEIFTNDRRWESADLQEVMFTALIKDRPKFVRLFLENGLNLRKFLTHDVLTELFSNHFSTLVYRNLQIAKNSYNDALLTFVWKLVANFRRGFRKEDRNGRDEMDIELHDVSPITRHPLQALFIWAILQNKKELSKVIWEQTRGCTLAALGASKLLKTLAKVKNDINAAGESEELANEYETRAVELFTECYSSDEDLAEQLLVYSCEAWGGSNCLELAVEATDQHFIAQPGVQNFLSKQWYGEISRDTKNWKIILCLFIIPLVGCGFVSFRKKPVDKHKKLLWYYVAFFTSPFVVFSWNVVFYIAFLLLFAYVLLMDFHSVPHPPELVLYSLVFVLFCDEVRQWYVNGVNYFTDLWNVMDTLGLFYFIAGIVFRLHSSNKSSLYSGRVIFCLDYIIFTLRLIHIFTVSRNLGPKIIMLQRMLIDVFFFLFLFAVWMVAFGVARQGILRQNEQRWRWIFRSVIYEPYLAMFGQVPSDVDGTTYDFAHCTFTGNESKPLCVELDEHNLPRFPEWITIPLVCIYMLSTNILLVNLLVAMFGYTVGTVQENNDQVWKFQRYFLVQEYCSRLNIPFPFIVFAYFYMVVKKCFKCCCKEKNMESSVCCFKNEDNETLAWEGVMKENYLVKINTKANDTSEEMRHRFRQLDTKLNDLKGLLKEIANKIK

TRPV1 [3] = biological target: T2, TRPV1 (Homo sapiens, UniProt Q8NER1); set-up: method as in PMID 29054683; conditions: 100μM; cited from earlier work
T2 sequence (Q8NER1 whole entry): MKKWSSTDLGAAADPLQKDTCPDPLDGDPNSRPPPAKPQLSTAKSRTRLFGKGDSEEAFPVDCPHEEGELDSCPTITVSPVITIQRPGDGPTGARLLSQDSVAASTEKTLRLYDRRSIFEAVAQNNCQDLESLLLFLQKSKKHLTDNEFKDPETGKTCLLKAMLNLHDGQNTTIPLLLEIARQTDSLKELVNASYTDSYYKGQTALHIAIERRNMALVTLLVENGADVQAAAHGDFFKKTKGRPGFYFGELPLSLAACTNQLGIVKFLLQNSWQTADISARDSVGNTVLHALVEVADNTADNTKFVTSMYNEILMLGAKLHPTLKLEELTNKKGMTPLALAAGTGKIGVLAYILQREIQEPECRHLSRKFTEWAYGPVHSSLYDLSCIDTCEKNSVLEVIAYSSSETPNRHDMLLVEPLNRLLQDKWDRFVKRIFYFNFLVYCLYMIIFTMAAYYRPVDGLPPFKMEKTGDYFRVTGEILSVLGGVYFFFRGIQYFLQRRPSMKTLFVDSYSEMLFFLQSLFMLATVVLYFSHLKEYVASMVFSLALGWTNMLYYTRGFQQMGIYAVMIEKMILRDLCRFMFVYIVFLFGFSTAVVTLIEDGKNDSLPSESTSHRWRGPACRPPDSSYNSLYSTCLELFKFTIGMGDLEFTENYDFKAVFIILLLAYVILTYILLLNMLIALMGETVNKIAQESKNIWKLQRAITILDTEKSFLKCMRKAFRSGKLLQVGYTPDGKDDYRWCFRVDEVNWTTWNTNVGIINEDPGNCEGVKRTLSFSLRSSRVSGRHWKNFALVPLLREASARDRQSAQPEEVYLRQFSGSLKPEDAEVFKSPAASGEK

TRPV1 [4] = biological target: T2, TRPV1; experiment: Single cell confocal Ca2+ imaging (fluo-4) in transfected HEK293 cells; format: cell-based; set-up: host or cells: HEK293 (ATCC CRL-1573.3), transient; conditions: capsaicin 1μM, ±PZQ 100μM
Source text: (§1) Human TRPM8 cDNA was a VersaClone from R&D Systems (RDC0188). Plasmids encoding human TRPA1 and human TRPV1 cDNA were purchased from DNASU plasmid repository (HsCD00080227 and HsCD00081472, respectively). The TRP channel coding sequences were subcloned into pCS2+ to introduce a COOH-term myc tag using the InFusion HD method (Clontech), HindIII/XhoI restriction enzymes (NEB) and the following primers: TRPM8 F–TGGGGACGTCGGAGC-aagctt-[…]; TRPM8 R–AAATCGATGGGATGC-ctcgag-[…]; TRPA1 F-GGACGTCGGAGC-aagctt- atgaagcgcagcctgagg; TRPA1 R-TCGATGGGATGC-ctcgag-[…]; TRPV1 F–GGACGTCGGAGC-aagctt-[…]; TRPV1 R-TCGATGGGATGC-ctcgag-cttctccccggaagcgg (where upper case specifies vector-specific sequences, italics indicate restriction sites, and lower case indicates TRP channel specific sequences). Primers are listed in a 5’ to 3’ orientation.
(§2) HEK293 cells (ATCC CRL-1573.3) were cultured in DMEM supplemented with 10% fetal bovine serum (FBS), penicillin (100 units/ml), streptomycin (100 μg/ml), and L-glutamine (290 μg/ml). Cells were transiently transfected (Lipofectamine LTX, Thermo Fisher) at a density of 2x10^6 cells per T-25 cell-culture flask with TRP channel cDNA. For Ca^2+ imaging assays, HEK293 cells were seeded onto 8-chambered coverglass slides (Thermo Fisher, 115411PK), at a density of 1x10^4 cells one day prior to imaging. Cells were washed twice with HBSS, and incubated with fluo-4-AM (4μM), pluronic F127 (0.4%) and probenecid (2.5mM) for 25 minutes at room temperature. Cells were then washed twice with HBSS, and left at room temperature (30 minutes) for de-esterification. Dishes were mounted on an Olympus IX81 microscope and fluorescence changes (λex = 488nM, λem = 513±15nm bandpass filter) monitored using a Yogokawa spinning disk confocal (CSU-X-M1N) and an Andor iXon Ultra 888 EMCCD camera.

hTRPM8 [5] = biological target: T1, hTRPM8; experiment: as above; format: cell-based; set-up: host or cells: HEK293 (ATCC CRL-1573.3), transient; conditions: for EC50: confocal imaging, Fig 4E, read-out: EC50, Ca2+ mobilization in TRPM8 expressing cells; for cytoplasmic Ca2+ signal in TRPM8 expressing cells: menthol 300μM, ±PZQ 100μM, (R)-PZQ or (S)-PZQ 50μM
Source text: as §1, §2

hTRPA1 [6] = biological target: T3, hTRPA1 (Homo sapiens, UniProt O75762); experiment: as above; format: cell-based; set-up: host or cells: HEK293 (ATCC CRL-1573.3), transient; conditions: 100μM
T3 sequence (O75762 whole entry): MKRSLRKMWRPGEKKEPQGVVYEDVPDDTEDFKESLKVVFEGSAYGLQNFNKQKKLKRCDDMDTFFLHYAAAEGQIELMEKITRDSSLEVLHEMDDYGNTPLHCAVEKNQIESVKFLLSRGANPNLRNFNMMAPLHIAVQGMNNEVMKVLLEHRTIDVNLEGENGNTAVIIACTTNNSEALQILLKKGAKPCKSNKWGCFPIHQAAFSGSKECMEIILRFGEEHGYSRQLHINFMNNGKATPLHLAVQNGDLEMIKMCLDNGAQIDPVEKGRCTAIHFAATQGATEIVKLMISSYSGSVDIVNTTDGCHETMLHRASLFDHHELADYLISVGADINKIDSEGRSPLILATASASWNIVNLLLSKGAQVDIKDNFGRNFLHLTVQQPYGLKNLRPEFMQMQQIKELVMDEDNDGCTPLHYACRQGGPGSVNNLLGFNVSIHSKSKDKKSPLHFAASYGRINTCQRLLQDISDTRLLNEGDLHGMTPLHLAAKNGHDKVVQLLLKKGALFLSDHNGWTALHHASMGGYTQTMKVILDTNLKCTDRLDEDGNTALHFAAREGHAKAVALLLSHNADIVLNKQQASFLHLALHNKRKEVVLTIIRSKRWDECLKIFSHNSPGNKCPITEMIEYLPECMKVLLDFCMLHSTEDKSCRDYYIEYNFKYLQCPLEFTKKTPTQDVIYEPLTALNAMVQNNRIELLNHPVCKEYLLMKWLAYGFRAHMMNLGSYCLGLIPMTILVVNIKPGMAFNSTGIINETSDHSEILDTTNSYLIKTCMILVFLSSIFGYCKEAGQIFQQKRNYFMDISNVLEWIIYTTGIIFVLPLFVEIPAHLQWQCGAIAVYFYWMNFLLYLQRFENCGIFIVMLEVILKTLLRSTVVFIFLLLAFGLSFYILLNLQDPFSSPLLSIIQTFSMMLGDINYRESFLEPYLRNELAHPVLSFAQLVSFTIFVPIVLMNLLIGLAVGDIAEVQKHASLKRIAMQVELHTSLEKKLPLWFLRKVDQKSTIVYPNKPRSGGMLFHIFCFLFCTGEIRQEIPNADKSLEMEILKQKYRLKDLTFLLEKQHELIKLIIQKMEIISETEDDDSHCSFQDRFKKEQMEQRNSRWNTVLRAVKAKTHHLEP
Source text: as §1, §2

[7] = test system: untransfected HEK293 cells; experiment: Confocal Ca2+ imaging in untransfected HEK293 cells (control); format: cell-based, human; conditions: menthol 300μM, ±PZQ 100μM, ACh 100μM, capsaicin 1μM, AITC 100μM
Experimental: as §2

hTRPM8 [8] = biological target: T1, hTRPM8; experiment: TRP channel panel primary screen (FLIPR Calcium 5, stable HEK line); format: cell-based; conditions: 0.3-300μM; effects over the micromolar range
Experimental: (§3) ±PZQ, (R)-PZQ and (S)-PZQ were screened against a panel of 17 human TRP channels (SB Drug Discovery, Glasgow). For all hTRPs, except for TRPM5, individual channel constructs were stably expressed in HEK cell lines. TRMP5 was expressed in a stable CHO cell line. In preparation for the assays, cells were trypsinized, counted and seeded (50,000 cells/well) in black, clear-bottomed 96 well plates and incubated overnight. The following day, cells were loaded with a fluorescent indicator (FLIPR Calcium 5 Assay kit for TRPA1, TRPV1, TRPV2, TRPV3, TRPV4, TRPV5, TRPC1, TRPM2, TRPM3 and TRPM8, or a membrane potential dye (FLIPR Membrane Potential Red Assay Kit for TRPC3, TRPC4, TRPC5, TRPC6, TRPC7, TRPM4 and TRPM5) prepared according to the manufacturer’s instructions in HEPES buffered Hank’s balanced salt solution (HBSS). Dye solution (10μl) was added to appropriate wells and incubated at 37°C for 1 hour. All assays were performed at room temperature. Compounds were tested at 0.3, 1, 3, 10, 30, 100μM and 300μM in triplicate in both agonist and antagonist mode to determine EC50 and IC50 values, which were compared with reference compounds. Compounds were screened at a final DMSO concentration of 0.5%. Plates were screened using a Flexstation (Molecular Devices, FX01138), monitoring fluorescence values every ~1.52 seconds. For ‘agonist mode’ testing, 10μl of the appropriate test compound, or standard agonist, was added after 20 seconds and fluorescence monitored for 2 minutes at λex = 485nm, λem = 525nm for Ca^2+ imaging and λex = 530nm, λem = 565nm for membrane potential measurements. For ‘antagonist mode’ testing, test compounds and standard inhibitors were added to appropriate wells and incubated for 10 minutes at room temperature prior to addition of standard agonist compound.

hTRPA1 [9] = biological target: T3, hTRPA1; experiment: as above; format: cell-based; conditions: 0.3-300μM; effects over the micromolar range
Experimental: as §3

[10] = test system: mesenteric vessels isolated from a TRPM8 knockout mouse; experiment: Wire myography, KPSS-contracted mesenteric vessels from TRPM8 knockout mice; conditions: TRPM8 KO tissue; 50μM

SMILES: O=C(C1CCCCC1)N1CC(=O)N2CCc3ccccc3C2C1 (racemic) [±PZQ, praziquantel]
- relaxation of the KPSS-contracted vessel ([1]; 100μM, peak relaxation): 61±9%
- EC50 (hTRPM8 [2]): ~25 µM
- activation of TRPV1 (TRPV1 [3]): low potency activation
- Ca2+ signal in TRPV1 expressing cells (TRPV1 [4]): No responses
- EC50 (hTRPM8 [5]): 19 ± 5 µM
- cytoplasmic Ca2+ signal in TRPM8 expressing cells (hTRPM8 [5]): evoked cytoplasmic Ca^2+ signals
- Ca2+ response in hTRPA1 expressing cells (hTRPA1 [6]): elicited Ca^2+ responses
- Ca2+ response in untransfected HEK293 cells [7]: neither ±PZQ or menthol elevated cytoplasmic Ca^2+ levels; also recorded: neither the addition of the TRPV1 agonist capsaicin (1μM) nor addition of ±PZQ evoked a Ca^2+ response; also recorded: without effect
- activity at hTRPM8 in primary screen (hTRPM8 [8]): displayed activity
- activity at hTRPA1 in primary screen (hTRPA1 [9]): displayed activity

SMILES: O=C(C1CCCCC1)N1CC(=O)N2CCc3ccccc3[C@H]2C1 [(S)-PZQ]
- change in tension of KPSS-precontracted vessels ([1]; 50μM, bath application during KPSS-evoked contraction): decrease in tension
- extent of relaxation ([1]; WT tissue, 50μM): ~ 30 % of peak KPSS-evoked tone
- EC50 (hTRPM8 [5]): 19.2 ± 5.3 µM
- cytoplasmic Ca2+ signal in TRPM8 expressing cells (hTRPM8 [5]): evoked cytoplasmic Ca^2+ signals
- Ca2+ response in hTRPA1 expressing cells (hTRPA1 [6]): activation of hTRPA1
- extent of relaxation [10]: ~ 30 % of peak KPSS-evoked tone
- activity at hTRPM8 in primary screen (hTRPM8 [8]): sole active enantiomer
- activity at hTRPA1 in primary screen (hTRPA1 [9]): activated
